Test results from patent publication US7626021B2, “Fused ring heterocycle kinase modulators” (SGX Pharmaceuticals, Inc., priority 2004, dated 2009).
Where two headings read alike, the source gives them in different places.

What was measured:
PDK1 kinase = target: T1, PDK1 kinase (Homo sapiens, UniProt O15530); test: PDK1 luminescence-based enzyme assay (Kinase-Glo); format: biochemical
T1 construct: 6x Histidine tag (TEV-cleavable) (cleaved yes); made in house; host or cells: Sf9 insect cells
T1 sequence (O15530 1-556): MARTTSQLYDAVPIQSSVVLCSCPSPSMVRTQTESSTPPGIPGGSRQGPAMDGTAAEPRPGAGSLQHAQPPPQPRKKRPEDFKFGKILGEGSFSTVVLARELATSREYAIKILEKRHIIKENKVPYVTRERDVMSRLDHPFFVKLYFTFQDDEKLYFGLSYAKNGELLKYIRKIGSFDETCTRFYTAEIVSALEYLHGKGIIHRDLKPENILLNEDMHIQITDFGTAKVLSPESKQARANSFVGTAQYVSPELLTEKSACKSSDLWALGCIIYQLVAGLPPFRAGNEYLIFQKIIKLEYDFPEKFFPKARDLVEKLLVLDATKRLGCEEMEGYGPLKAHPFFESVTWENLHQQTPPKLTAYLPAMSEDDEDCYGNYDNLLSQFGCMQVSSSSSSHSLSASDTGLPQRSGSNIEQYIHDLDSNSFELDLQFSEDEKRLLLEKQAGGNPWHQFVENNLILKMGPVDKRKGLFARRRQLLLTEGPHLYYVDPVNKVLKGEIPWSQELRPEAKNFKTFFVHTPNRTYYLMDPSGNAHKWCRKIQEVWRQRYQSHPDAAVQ
Text: (§1) In addition to the c-Abl PK/LDH coupled assay (above), homogeneous luminescence-based inhibitor screening assays were developed for c-Abl, MET, AurA, and PDK1 kinases (among others). Each of these assays made use of an ATP depletion assay (Kinase-Glo™, Promega Corporation, Madison, Wis.) to quantitate kinase activity. The Kinase-Glo™ format uses a thermostable luciferase to generate luminescent signal from ATP remaining in solution following the kinase reaction. The luminescent signal is inversely correlated with the amount of kinase activity.
PDK1 Luminescence-Based Enzyme Assay
Standard Assay Setup for 384-well format (20 μl kinase reaction, 40 μl detection reaction): 10 mM MgCl2; 0.01 mM PDKtide; 1 μl test compound (in DMSO); 0.1 μg/ml PDK1 kinase; 5 μM ATP; 1 mM MgCl2; 100 mM HEPES+0.01% Brij buffer. Positive controls contained DMSO with no test compound. Negative controls contained 10 μM staurosporine. The kinase reactions were initiated at time t=0 by the addition of ATP. Kinase reactions were incubated at 21° C. for 40 min, then 20 μl of Kinase-Glo™ reagent were added to each well to quench the kinase reaction and initiate the luminescence reaction. After a 20 min incubation at 21° C., the luminescence was detected in a plate-reading luminometer.

MET kinase = target: T2, MET kinase (Homo sapiens, UniProt P08581); test: MET luminescence-based enzyme assay (Kinase-Glo); format: biochemical
T2 construct: Sf9 insect cell culture expressing the kinase domain of human Met; 6x Histidine tag (TEV-cleavable) (cleaved yes); made in house; host or cells: Sf9 insect cells
T2 sequence (P08581 1078-1345 limits assumed): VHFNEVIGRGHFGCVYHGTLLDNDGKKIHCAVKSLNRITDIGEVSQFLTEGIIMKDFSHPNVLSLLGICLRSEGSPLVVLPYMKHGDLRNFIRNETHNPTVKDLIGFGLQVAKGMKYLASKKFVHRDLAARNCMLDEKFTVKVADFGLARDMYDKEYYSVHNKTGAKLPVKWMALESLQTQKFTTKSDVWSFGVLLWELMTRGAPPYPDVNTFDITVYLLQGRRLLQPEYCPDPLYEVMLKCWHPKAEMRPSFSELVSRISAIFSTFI
Text: as §1
MET Luminescence-based Enzyme Assay
Materials: Poly Glu-Tyr (4:1) substrate (Sigma Cat# P-0275), ATP (Sigma Cat#A-3377, FW=551), HEPES buffer, pH 7.5, Bovine serum albumin (BSA) (Roche 92423420), MgCl2, Staurosporine (Streptomyces sp. Sigma Cat#85660-1MG), white Costar 384-well flat-bottom plate (VWR Cat#29444-088). […]
Standard Assay Setup for 384-well format (20 μl kinase reaction, 40 μl detection reaction): 10 mM MgCl2; 0.3 mg/ml poly Glu-Tyr; 0.1% BSA; 1 μl test compound (in DMSO); 0.4 μg/ml MET kinase; 10 μM ATP; 100 mM HEPES buffer. […] Kinase reactions were incubated at 21° C. for 60 min, then 20 μl of Kinase-Glo™ reagent were added to each well to quench the kinase reaction and initiate the luminescence reaction. After a 20 min incubation at 21° C., the luminescence was detected in a plate-reading luminometer.

COc1ccccc1-c1n[nH]c2ncc(-c3ccc(C(=O)N4CCCCC4)cc3)cc12
IC50 (PDK1 kinase): 1 to 10 µM

COc1cc(-c2cnc3[nH]nc(-c4ccccc4)c3c2)ccc1O
IC50 (PDK1 kinase): 1 to 10 µM

COc1cc(-c2cnc3[nH]cc(-c4ccc(C)cc4)c3n2)ccc1O
IC50 (PDK1 kinase; read-out: PDK1 IC50): 1 to 10 µM

COc1ccccc1-c1n[nH]c2ncc(-c3ccc(C(=O)N4CCN(C)CC4)cc3)cc12
IC50 (PDK1 kinase): 1 to 10 µM

COc1ccccc1-c1n[nH]c2ncc(-c3ccc(C(=O)N4CCCC4)cc3)cc12
IC50 (PDK1 kinase): 1 to 10 µM

CCN1CCN(C(=O)c2cccc(-c3cnc4[nH]nc(-c5cc(F)ccc5OC)c4c3)c2)CC1
IC50 (MET kinase): 1 to 10 µM

COc1ccccc1-c1n[nH]c2ncc(-c3ccc(C(=O)N4CCOCC4)cc3)cc12
IC50 (PDK1 kinase): 1 to 10 µM
